Assay results reported in US20230040770A1, “HETEROCYCLIC COMPOUND AND USE THEREOF” (TAKEDA PHARMACEUTICAL COMPANY LIMITED, priority 2019, published 2023).

Target: T1, human orexin type 2 receptor (Homo sapiens, UniProt O43614)
T1 construct: expressed in transfected cells
T1 sequence (O43614 1-444): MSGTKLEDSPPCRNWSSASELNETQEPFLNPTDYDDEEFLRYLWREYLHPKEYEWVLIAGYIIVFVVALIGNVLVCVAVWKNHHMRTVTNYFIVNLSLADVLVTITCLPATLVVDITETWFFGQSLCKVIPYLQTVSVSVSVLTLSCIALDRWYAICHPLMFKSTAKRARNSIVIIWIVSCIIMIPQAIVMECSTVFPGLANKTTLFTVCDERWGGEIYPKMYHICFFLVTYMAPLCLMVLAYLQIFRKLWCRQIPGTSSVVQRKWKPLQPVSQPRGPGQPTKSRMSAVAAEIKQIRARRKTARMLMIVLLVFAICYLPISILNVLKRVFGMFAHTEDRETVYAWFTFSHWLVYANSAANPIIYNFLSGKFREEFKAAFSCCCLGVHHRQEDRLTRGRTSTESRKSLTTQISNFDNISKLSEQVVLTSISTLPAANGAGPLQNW
Assay: Measurement of orexin type 2 receptor agonist activity (calcium indicator fluorescence, CHO cells forcibly expressing human OX2 receptor)
Assay type: cell-based
Settings: compound at 3 μM; 0% = DMSO, 100% = orexin A (human) 10 nM
Summary of the method: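 Agonist response normalised between vehicle (0%) and orexin A at 10 nM final (100%), from kinetic Fluo-4 calcium signals recorded for about 2 min after compound addition. Cells: stable human OX2R CHO clone, dye-loaded 30 min at 37 °C plus 30 min at room temperature.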

| SMILES | OX2R agonist activity (3 μM, %) [%] |
| --- | --- |
| CCS(=O)(=O)N[C@H]1[C@@H](F)CN(C(=O)C(C)(C)O)[C@H]1Cc1cccc(-c2cc(F)cc(Cl)c2)c1F [Example 345, N-[(2S,3R,4S)-2-[(3′-chloro-2,5′-difluoro[1,1′-biphenyl]-3-yl)methyl]-4-fluoro-1-(2-hydroxy-2-methylpropanoyl)pyrrolidin-3-yl]ethanesulfonamide] | 92 |
| CCS(=O)(=O)N[C@H]1[C@@H](F)CN(C(=O)C(C)(C)O)[C@H]1Cc1cccc(-c2cccc(Cl)c2)c1F [Example 346, N-[(2S,3R,4S)-2-[(3′-chloro-2-fluoro[1,1′-biphenyl]-3-yl)methyl]-4-fluoro-1-(2-hydroxy-2-methylpropanoyl)pyrrolidin-3-yl]ethanesulfonamide] | 93 |
| CCS(=O)(=O)N[C@H]1[C@@H](F)CN(C(=O)C(C)(C)O)[C@H]1Cc1cccc(-c2cccc(Cl)c2F)c1F [Example 347, N-[(2S,3R,4S)-2-[(3′-chloro-2,2′-difluoro[1,1′-biphenyl]-3-yl)methyl]-4-fluoro-1-(2-hydroxy-2-methylpropanoyl)pyrrolidin-3-yl]ethanesulfonamide] | 102 |
| CCS(=O)(=O)N[C@H]1[C@@H](F)CN(C(=O)C(C)(C)O)[C@H]1Cc1cccc(-c2cc(Cl)ccc2F)c1F [Example 348, N-[(2S,3R,4S)-2-[(5′-chloro-2,2′-difluoro[1,1′-biphenyl]-3-yl)methyl]-4-fluoro-1-(2-hydroxy-2-methylpropanoyl)pyrrolidin-3-yl]ethanesulfonamide] | 103 |
| CCS(=O)(=O)N[C@@H]1[C@H](Cc2cccc(-c3cccc(F)c3F)c2F)N(C(=O)C2CC(F)C2)CC1(F)F (stereo partly drawn) [Example 349, N-{(2S,3R)-4,4-difluoro-1-(3-fluorocyclobutane-1-carbonyl)-2-[(2,2′,3′-trifluoro[1,1′-biphenyl]-3-yl)methyl]pyrrolidin-3-yl}ethanesulfonamide] | 98 |
| CCS(=O)(=O)N[C@@H]1[C@H](Cc2cccc(-c3cc(F)ccc3F)c2F)N(C(=O)C2CCO2)CC1(F)F (stereo partly drawn) [Example 356, N-{(2S,3R)-4,4-difluoro-1-(oxetane-2-carbonyl)-2-[(2,2′,5′-trifluoro[1,1′-biphenyl]-3-yl)methyl]pyrrolidin-3-yl}ethanesulfonamide] | 97 |
| CCS(=O)(=O)N[C@H]1[C@@H](F)CN(C(=O)C23CC(C2)C3)[C@H]1Cc1cccc(-c2cc(F)cc(F)c2)c1F [Example 365, N-{(2S,3R,4S)-1-(bicyclo[1.1.1]pentane-1-carbonyl)-4-fluoro-2-[(2,3′,5′-trifluoro[1,1′-biphenyl]-3-yl)methyl]pyrrolidin-3-yl}ethanesulfonamide] | 93 |
| CCS(=O)(=O)N[C@H]1[C@@H](F)CN(C(=O)C23CC(C2)C3)[C@H]1Cc1cccc(-c2cccc(F)c2F)c1F [Example 366, N-{(2S,3R,4S)-1-(bicyclo[1.1.1]pentane-1-carbonyl)-4-fluoro-2-[(2,2′,3′-trifluoro[1,1′-biphenyl]-3-yl)methyl]pyrrolidin-3-yl}ethanesulfonamdie] | 96 |
| CCS(=O)(=O)N[C@H]1[C@@H](F)CN(C(=O)C2CCO2)[C@H]1Cc1cccc(-c2cccc(Cl)c2)c1F (stereo partly drawn) [Example 368, N-[(2S,3R,4S)-2-[(3′-chloro-2-fluoro[1,1′-biphenyl]-3-yl)methyl]-4-fluoro-1-(oxetane-2-carbonyl)pyrrolidin-3-yl]ethanesulfonamide] | 95 |
| CC(C)(O)C(=O)N1C[C@H](F)[C@H](NS(=O)(=O)C2CC2)[C@@H]1Cc1cccc(-c2cccc(F)c2)c1F [Example 369, N-[(2S,3R,4S)-2-[(2,3′-difluoro[1,1′-biphenyl]-3-yl)methyl]-4-fluoro-1-(2-hydroxy-2-methylpropanoyl)pyrrolidin-3-yl]cyclopropanesulfonamide] | 85 |
| CC(C)(O)C(=O)N1C[C@H](F)[C@H](NS(=O)(=O)C2CC2)[C@@H]1Cc1cccc(-c2cc(F)cc(F)c2)c1F [Example 370, N-{(2S,3R,4S)-4-fluoro-1-(2-hydroxy-2-methylpropanoyl)-2-[(2,3′,5′-trifluoro[1,1′-biphenyl]-3-yl)methyl]pyrrolidin-3-yl}cyclopropanesulfonamide] | 91 |
| CC(C)(O)C(=O)N1C[C@H](F)[C@H](NS(=O)(=O)C2CC2)[C@@H]1Cc1cccc(-c2cccc(F)c2F)c1F [Example 371, N-{(2S,3R,4S)-4-fluoro-1-(2-hydroxy-2-methylpropanoyl)-2-[(2,2′,3′-trifluoro[1,1′-biphenyl]-3-yl)methyl]pyrrolidin-3-yl}cyclopropanesulfonamide] | 94 |
| O=C(C1CC1)N1C[C@H](F)[C@H](NS(=O)(=O)C2CC2)[C@@H]1Cc1cccc(-c2cccc(F)c2)c1F [Example 372, N-{(2S,3R,4S)-1-(cyclopropanecarbonyl)-2-[(2,3′-difluoro[1,1′-biphenyl]-3-yl)methyl]-4-fluoropyrrolidin-3-yl}cycloproapnesulfonamide] | 89 |
| O=C(C1CC1)N1C[C@H](F)[C@H](NS(=O)(=O)C2CC2)[C@@H]1Cc1cccc(-c2cc(F)cc(F)c2)c1F [Example 373, N-{(2S,3R,4S)-1-(cyclopropanecarbonyl)-4-fluoro-2-[(2,3′,5′-trifluoro[1,1′-biphenyl]-3-yl)methyl]pyrrolidin-3-yl}cyclopropanesulfonamide] | 88 |
| CS(=O)(=O)N[C@H]1[C@@H](F)CN(C(=O)C23CC(C2)C3)[C@H]1Cc1cccc(-c2cc(F)cc(F)c2)c1F [Example 374, N-{(2S,3R,4S)-1-(bicyclo[1.1.1]pentane-1-carbonyl)-4-fluoro-2-[(2,3′,5′-trifluoro[1,1′-biphenyl]-3-yl)methyl]pyrrolidin-3-yl}methanesulfonamide] | 93 |
| CCS(=O)(=O)N[C@@H]1[C@H](Cc2cccc(-c3cc(F)ccc3F)c2F)N(C(=O)[C@H]2C[C@H](F)C2)CC1(F)F [Example 376, N-{(2S,3R)-4,4-difluoro-1-((1r,3S)-3-fluorocyclobutane-1-carbonyl)-2-[(2,2′,5′-trifluoro[1,1′-biphenyl]-3-yl)methyl]pyrrolidin-3-yl}ethanesulfonamide] | 99 |
| O=C(C1CC1)N1C[C@H](F)[C@H](NS(=O)(=O)C2CC2)[C@@H]1Cc1cccc(-c2cccc(F)c2F)c1F [Example 377, N-{(2S,3R,4S)-1-(cyclopropanecarbonyl)-4-fluoro-2-[(2,2′,3′-trifluoro[1,1′-biphenyl]-3-yl)methyl]pyrrolidin-3-yl}cyclopropanesulfonamide] | 95 |
| CCS(=O)(=O)N[C@@H]1[C@H](Cc2cccc(-c3ccccc3)c2F)N(C(=O)[C@H]2C[C@H](F)C2)CC1(F)F [Example 378, N-[(2S,3R)-4,4-difluoro-2-[(2-fluoro[1,1′-biphenyl]-3-yl)methyl]-1-((1r,3S)-3-fluorocyclobutane-1-carbonyl)pyrrolidin-3-yl]ethanesulfonamide] | 106 |
| O=C(C1CC1)N1C[C@H](F)[C@H](NS(=O)(=O)C2CC2)[C@@H]1Cc1cccc(-c2cc(F)ccc2F)c1F [Example 379, N-{(2S,3R,4S)-1-(cyclopropanecarbonyl)-4-fluoro-2-[(2,2′,5′-trifluoro[1,1′-biphenyl]-3-yl)methyl]pyrrolidin-3-yl}cycloproapnesulfonamide] | 93 |
| CCS(=O)(=O)N[C@@H]1[C@H](Cc2cccc(-c3cc(F)ccc3F)c2F)N(C(=O)[C@H]2C[C@@H](F)C2)CC1(F)F [Example 381, N-{(2S,3R)-4,4-difluoro-1-((1s,3R)-3-fluorocyclobutane-1-carbonyl)-2-[(2,2′,5′-trifluoro[1,1′-biphenyl]-3-yl)methyl]pyrrolidin-3-yl}ethanesulfonamide] | 95 |
| CC(C)C(=O)N1C[C@H](F)[C@H](NS(=O)(=O)C2CC2)[C@@H]1Cc1cccc(-c2cccc(F)c2)c1F [Example 382, N-[(2S,3R,4S)-2-[(2,3′-difluoro[1,1′-biphenyl]-3-yl)methyl]-4-fluoro-1-(2-methylpropanoyl)pyrrolidin-3-yl]cyclopropanesulfonamide] | 102 |
| CCS(=O)(=O)N[C@@H]1[C@H](Cc2cccc(-c3ccccc3)c2F)N(C(=O)[C@H]2C[C@@H](F)C2)CC1(F)F [Example 383, N-[(2S,3R)-4,4-difluoro-2-[(2-fluoro[1,1′-biphenyl]-3-yl)methyl]-1-((1s,3R)-3-fluorocyclobutane-1-carbonyl)pyrrolidin-3-yl]ethanesulfonamide] | 94 |
| O=C(N1C[C@H](F)[C@H](NS(=O)(=O)C2CC2)[C@@H]1Cc1cccc(-c2cccc(F)c2)c1F)C12CC(C1)C2 [Example 384, N-{(2S,3R,4S)-1-(bicyclo[1.1.1]pentane-1-carbonyl)-2-[(2,3′-difluoro[1,1′-biphenyl]-3-yl)methyl]-4-fluoropyrrolidin-3-yl}cyclopropanesulfonamide] | 98 |
